Source: ChEMBL document CHEMBL1137718, “Topological descriptors in modeling the agonistic activity of human A3 adenosine receptor ligands: the derivatives of 2-chloro-N(6)-substituted-4'-thioadenosine-5'-uronamide” (Eur J Med Chem, 2009)

Biological target: T1, Adenosine receptor A3 (Homo sapiens, UniProt P0DMS8)
T1 sequence (P0DMS8 whole entry): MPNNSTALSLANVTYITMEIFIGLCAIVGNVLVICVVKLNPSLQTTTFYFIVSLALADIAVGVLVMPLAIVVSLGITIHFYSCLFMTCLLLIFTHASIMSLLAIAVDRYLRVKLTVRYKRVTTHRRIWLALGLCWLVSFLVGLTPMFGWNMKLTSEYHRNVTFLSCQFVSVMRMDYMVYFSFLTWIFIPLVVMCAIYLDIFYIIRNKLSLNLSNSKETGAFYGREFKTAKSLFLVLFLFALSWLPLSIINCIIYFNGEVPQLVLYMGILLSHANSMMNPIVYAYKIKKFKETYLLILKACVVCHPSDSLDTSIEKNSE
Test: Displacement of [125I][…] from human adenosine A3 receptor expressed in CHO cells
Assay type: cell-based

Ki [µM]	Structure (SMILES)
0.417	CNc1nc(Cl)nc2c1ncn2[C@@H]1O[C@H](C(=O)NCCC(c2ccccc2)c2ccccc2)[C@@H](O)[C@H]1O
1.51	CNc1nc(Cl)nc2c1ncn2[C@@H]1O[C@H](C(=O)N(C)C)[C@@H](O)[C@H]1O
0.000398	CNC(=O)[C@H]1O[C@@H](n2cnc3c(N)nc(Cl)nc32)[C@H](O)[C@@H]1O
0.00427	CNC(=O)[C@H]1S[C@@H](n2cnc3c(NC4CCCC4)nc(Cl)nc32)[C@H](O)[C@@H]1O
0.0417	CC(C)CCNC(=O)[C@H]1O[C@@H](n2cnc3c(NCc4cccc(I)c4)nc(Cl)nc32)[C@H](O)[C@@H]1O
49	Cc1ccccc1CNc1nc(Cl)nc2c1ncn2[C@@H]1O[C@H](C(=O)N2CCC(Cc3ccccc3)CC2)[C@@H](O)[C@H]1O
0.00562	O=C(NC1CC1)[C@H]1S[C@@H](n2cnc3c(NC4CC4)nc(Cl)nc32)[C@H](O)[C@@H]1O
0.0851	CNc1nc(Cl)nc2c1ncn2[C@@H]1O[C@H](C(=O)NCCc2cccc(F)c2)[C@@H](O)[C@H]1O
3.89	CNc1nc(Cl)nc2c1ncn2[C@@H]1O[C@H](C(=O)N2CCOCC2)[C@@H](O)[C@H]1O
0.0295	Cc1ccccc1CNc1nc(Cl)nc2c1ncn2[C@@H]1O[C@H](C(=O)NCC2CC2)[C@@H](O)[C@H]1O
3.98	O=C([C@H]1O[C@@H](n2cnc3c(NC4CC4)nc(Cl)nc32)[C@H](O)[C@@H]1O)N1CCC(Cc2ccccc2)CC1
7.59	Cc1ccccc1CNc1nc(Cl)nc2c1ncn2[C@@H]1O[C@H](C(=O)N2CCOCC2)[C@@H](O)[C@H]1O
0.513	O=C([C@H]1S[C@@H](n2cnc3c(NCc4cccc(I)c4)nc(Cl)nc32)[C@H](O)[C@@H]1O)N1CCOCC1
0.631	Cc1ccccc1CNc1nc(Cl)nc2c1ncn2[C@@H]1O[C@H](C(=O)N(C)C)[C@@H](O)[C@H]1O
0.347	O=C(NCCC(c1ccccc1)c1ccccc1)[C@H]1O[C@@H](n2cnc3c(NCc4cccc(I)c4)nc(Cl)nc32)[C@H](O)[C@@H]1O
1.45	O=C([C@H]1O[C@@H](n2cnc3c(NCc4cccc(I)c4)nc(Cl)nc32)[C@H](O)[C@@H]1O)N1CCN(c2ccc(F)cc2)CC1
0.355	O=C(NCc1cccc(C(F)(F)F)c1)[C@H]1O[C@@H](n2cnc3c(NCc4cccc(I)c4)nc(Cl)nc32)[C@H](O)[C@@H]1O
0.00224	CNC(=O)[C@H]1O[C@@H](n2cnc3c(NC4CC4)nc(Cl)nc32)[C@H](O)[C@@H]1O

Ki [µM]	Structure (SMILES)
4.47	O=C([C@H]1O[C@@H](n2cnc3c(NC4CC4)nc(Cl)nc32)[C@H](O)[C@@H]1O)N1CCOCC1
0.00282	CNc1nc(Cl)nc2c1ncn2[C@@H]1O[C@H](C(=O)NC2CC2)[C@@H](O)[C@H]1O
0.00295	O=C(NC1CC1)[C@H]1S[C@@H](n2cnc3c(NCc4cccc(I)c4)nc(Cl)nc32)[C@H](O)[C@@H]1O
0.000891	CCNC(=O)[C@H]1S[C@@H](n2cnc3c(NCc4cccc(I)c4)nc(Cl)nc32)[C@H](O)[C@@H]1O
0.309	O=C(NCc1cccc(Cl)c1)[C@H]1O[C@@H](n2cnc3c(NCc4cccc(I)c4)nc(Cl)nc32)[C@H](O)[C@@H]1O
0.0174	CNc1nc(Cl)nc2c1ncn2[C@@H]1O[C@H](C(=O)NCc2cccc(F)c2)[C@@H](O)[C@H]1O
0.0275	Cc1ccccc1CNc1nc(Cl)nc2c1ncn2[C@@H]1O[C@H](C(=O)NC2CC2)[C@@H](O)[C@H]1O
0.871	O=C([C@H]1S[C@@H](n2cnc3c(NCc4cccc(I)c4)nc(Cl)nc32)[C@H](O)[C@@H]1O)N1CCC(Cc2ccccc2)CC1
0.000676	CCNC(=O)[C@H]1O[C@@H](n2cnc3c(NC4CC4)nc(Cl)nc32)[C@H](O)[C@@H]1O
0.00363	O=C(NCC1CC1)[C@H]1S[C@@H](n2cnc3c(NCc4cccc(I)c4)nc(Cl)nc32)[C@H](O)[C@@H]1O
0.0182	O=C(NC1CCC1)[C@H]1S[C@@H](n2cnc3c(NCc4cccc(I)c4)nc(Cl)nc32)[C@H](O)[C@@H]1O
3.47	CNc1nc(Cl)nc2c1ncn2[C@@H]1O[C@H](C(=O)N2CCC(Cc3ccccc3)CC2)[C@@H](O)[C@H]1O
0.00219	CNC(=O)[C@H]1O[C@@H](n2cnc3c(NCc4ccccc4C)nc(Cl)nc32)[C@H](O)[C@@H]1O
0.437	O=C(NCCc1ccccc1)[C@H]1O[C@@H](n2cnc3c(NCc4cccc(I)c4)nc(Cl)nc32)[C@H](O)[C@@H]1O
0.00251	CCNC(=O)[C@H]1O[C@@H](n2cnc3c(NCc4ccccc4C)nc(Cl)nc32)[C@H](O)[C@@H]1O
2.69	CNc1nc(Cl)nc2c1ncn2[C@@H]1O[C@H](C(=O)N2CCN(c3ccc(F)cc3)CC2)[C@@H](O)[C@H]1O
0.0011	CNc1nc(Cl)nc2c1ncn2[C@@H]1O[C@H](C(=O)NCC2CC2)[C@@H](O)[C@H]1O
0.00162	CNc1nc(Cl)nc2c1ncn2[C@@H]1O[C@H](C(=O)NCCC(C)C)[C@@H](O)[C@H]1O
